Some results are limits rather than exact numbers.

In this experiment the target is SARS-CoV-2 Papain-Like Protease (PLpro) (Severe acute respiratory syndrome coronavirus 2 (2019-nCoV) (SARS-CoV-2), UniProt P0DTD1). The experiment is described as follows: biochemical. The conditions noted are these: SARS-CoV-2 PLpro enzymatic fluorescence assay; read-out: PLpro IC50.

One may read the IC50 as the concentration at which inhibition is half-maximal. As to `Cc1ccc(OCCN(C)C)cc1C(=O)NC1(c2cccc3ccsc23)CC1` [Compound 368, N-(1-(Benzo[b]thiophen-7-yl)cyclopropyl)-5-(2-(dimethylamino)ethoxy)-2-methylbenzamide], the half-inhibitory concentration (IC50) was in the range of 100 to 1000 nM.
Then `Cc1cc(Br)c(OCCN(C)C)cc1C(=O)NC1(c2cccc3ccccc23)CC1` [Compound 369, 4-Bromo-5-(2-(dimethylamino)ethoxy)-2-methyl-N-(1-(naphthalen-1-yl)cyclopropyl)benzamide], with below 100 nM; and `Cc1ccc(OCCN(C)C)cc1C(=O)NC1(c2cccc3ccoc23)CC1` [Compound 370, N-(1-(Benzofuran-7-yl)cyclopropyl)-5-(2-(dimethylamino)ethoxy)-2-methylbenzamide], with 100 to 1000 nM.
For `Cc1ccc(OC[C@H]2CCCN2)cc1C(=O)NC1(c2cccc3ncccc23)CC1` [Compound 371, (R)-2-methyl-5-(pyrrolidin-2-ylmethoxy)-N-(1-(quinolin-5-yl)cyclopropyl)benzamide], the IC50 is below 100 nM.
Then `COC(=O)/C=C/C(=O)NNC(=O)CCc1ccccc1C(=O)NC1(c2cccc3ccccc23)CC1` [Compound 373, (E)-Methyl 4-(2-(3-(2-((1-(naphthalen-1-yl)cyclopropyl)carbamoyl)phenyl)propanoyl) hydrazinyl)-4-oxobut-2-enoate], with below 100 nM; and `Cc1ccc(OCCN)cc1C(=O)NC1(c2cccc3ncccc23)CC1` [Compound 374, 5-(2-Aminoethoxy)-2-methyl-N-(1-(quinolin-5-yl)cyclopropyl)benzamide], with below 100 nM; and `CNCCOc1ccc(C)c(C(=O)NC2(c3cccc4cnccc34)CC2)c1` [Compound 375, N-(1-(Isoquinolin-5-yl)cyclopropyl)-2-methyl-5-(2-(methylamino)ethoxy)benzamide], with below 100 nM.
Regarding `Cc1ccc(OCC23CCCN2CCC3)cc1C(=O)NC1(c2cccc3ccccc23)CC1` [Compound 376, 5-((Hexahydro-1H-pyrrolizin-7a-yl)methoxy)-2-methyl-N-(1-(naphthalen-1-yl)cyclopropyl)benzamide], the IC50 is below 100 nM.
Consider `CNCCOc1ccc(C)c(C(=O)NC2(c3cccc4cc(F)ccc34)CC2)c1` [Compound 377, N-(1-(6-Fluoronaphthalen-1-yl)cyclopropyl)-2-methyl-5-(2-(methylamino)ethoxy)benzamide], for which the IC50 was below 100 nM.
`Cc1ccc(CCN)cc1C(=O)NC1(c2cccc3ccccc23)CC1` [Compound 378, 5-(2-Aminoethyl)-2-methyl-N-(1-(naphthalen-1-yl)cyclopropyl)benzamide]: the IC50 is below 100 nM.
For the molecule `Cc1ccc(OC[C@@H]2CCCN2C)cc1C(=O)NC1(c2cccc3ncccc23)CC1` [Compound 379, (S)-2-Methyl-5-((1-methylpyrrolidin-2-yl)methoxy)-N-(1-(quinolin-5-yl)cyclopropyl)benzamide], the IC50 is below 100 nM.
Then `Cc1ccc(OC[C@@H]2CCCN2)cc1C(=O)NC1(c2cccc3ncccc23)CC1` [Compound 380, (S)-2-Methyl-5-(pyrrolidin-2-ylmethoxy)-N-(1-(quinolin-5-yl)cyclopropyl)benzamide], with below 100 nM; and `Cc1ccc(OC[C@@H]2CCN2)cc1C(=O)NC1(c2cccc3ncccc23)CC1` [Compound 381, (S)-5-(Azetidin-2-ylmethoxy)-2-methyl-N-(1-(quinolin-5-yl)cyclopropyl)benzamide], with below 100 nM; and `Cc1ccc(OC[C@H]2CCCN2C)cc1C(=O)NC1(c2cccc3ncccc23)CC1` [Compound 382, (R)-2-Methyl-5-((1-methylpyrrolidin-2-yl)methoxy)-N-(1-(quinolin-5-yl)cyclopropyl)benzamide], with below 100 nM.
In the case of `Cc1ccc(OC[C@H]2CCN2)cc1C(=O)NC1(c2cccc3ncccc23)CC1` [Compound 383, (R)-5-(Azetidin-2-ylmethoxy)-2-methyl-N-(1-(quinolin-5-yl)cyclopropyl)benzamide], the IC50 was below 100 nM.
As for `COc1cc(C2(NC(=O)c3cc(OCC4CCN4C)ccc3C)CC2)c2ccccc2c1` (stereo not drawn) [Compound 384, N-(1-(3-methoxynaphthalen-1-yl)cyclopropyl)-2-methyl-5-((1-methylazetidin-2-yl)methoxy)benzamide], the IC50 is below 100 nM.
In the case of `CNCCOc1ccc(C)c(C(=O)NC2(c3cccc4ncccc34)CC2)c1` [Compound 385, 2-Methyl-5-(2-(methylamino)ethoxy)-N-(1-(quinolin-5-yl)cyclopropyl)benzamide], the IC50 is below 100 nM.
Take `Cc1ccc(OCC2CCN2C)cc1C(=O)N[C@@H](c1cccc2ccccc12)C(F)(F)F` (stereo partly drawn) [Compound 386, 2-Methyl-5-((1-methylazetidin-2-yl)methoxy)-N-((S)-2,2,2-trifluoro-1-(naphthalen-1-yl)ethyl)benzamide]: the IC50 is below 100 nM.
On to `Cc1ccc(OCC2CCN2C)cc1C(=O)NC1(c2cccc3ccccc23)COC1` (stereo not drawn) [Compound 387, 2-Methyl-5-((1-methylazetidin-2-yl)methoxy)-N-(3-(naphthalen-1-yl)oxetan-3-yl)benzamide], for which the IC50 is below 100 nM.
Regarding `Cc1ccc(OCCN(C)C)cc1C(=O)NC1(c2cccc3cccnc23)CC1` [Compound 388, 5-(2-(Dimethylamino)ethoxy)-2-methyl-N-(1-(quinolin-8-yl)cyclopropyl)benzamide], the IC50 was below 100 nM.
Regarding `Cc1ccc(OC[C@@H]2CCN2C)cc1C(=O)NC1(c2cccc3cc(F)ccc23)CC1` [Compound 389, (S)-N-(1-(6-Fluoronaphthalen-1-yl)cyclopropyl)-2-methyl-5-((1-methylazetidin-2-yl)methoxy)benzamide], the IC50 is below 100 nM.
`Cc1ccc(OC[C@H]2CCN2C)cc1C(=O)NC1(c2cccc3ncccc23)CC1` [Compound 390, (R)-2-Methyl-5-((1-methylazetidin-2-yl)methoxy)-N-(1-(quinolin-5-yl)cyclopropyl)benzamide]: the IC50 is below 100 nM.
Then `Cc1ccc(OC[C@@H]2CCN2C)cc1C(=O)NC1(c2cccc3ncccc23)CC1` [Compound 391, (S)-2-Methyl-5-((1-methylazetidin-2-yl)methoxy)-N-(1-(quinolin-5-yl)cyclopropyl)benzamide], with below 100 nM.
Then `Cc1ccc(OC[C@@H]2CCN2)cc1C(=O)NC1(c2cccc3cc(F)ccc23)CC1` [Compound 392, (S)-5-(Azetidin-2-ylmethoxy)-N-(1-(6-fluoronaphthalen-1-yl)cyclopropyl)-2-methylbenzamide], with below 100 nM; and `Cc1ccc(OCCN(C)C)cc1C(=O)NC1(c2cn(-c3ccccc3)c3ccccc23)CC1` [Compound 395, 5-(2-(Dimethylamino)ethoxy)-2-methyl-N-(1-(1-phenyl-1H-indol-3-yl)cyclopropyl)benzamide], with below 100 nM.
`Cc1ccc(OCC2CCN2CC(F)(F)F)cc1C(=O)NC1(c2cccc3ccccc23)CC1` (stereo not drawn) [Compound 396, 2-Methyl-N-(1-(naphthalen-1-yl)cyclopropyl)-5-((1-(2,2,2-trifluoroethyl)azetidin-2-yl)methoxy)benzamide]: the 50% inhibitory concentration (IC50) was in the range of 1000 to 5000 nM.
Regarding `CCCC1COc2cc(C(=O)NC3(c4cccc5ccccc45)CC3)c(C)cc21` (stereo not drawn) [Compound 397, 5-Methyl-N-(1-(naphthalen-1-yl)cyclopropyl)-3-propyl-2,3-dihydrobenzofuran-6-carboxamide], the IC50 fell in the range of 100 to 1000 nM.

Source of the values: US20250025443A1, “COMPOUNDS AND METHODS FOR TREATING CORONA VIRUSES” (CLEAR CREEK BIO, INC., priority 2021, published 2025).
